Measurements from publication PMC3985299, “Single Ascending Dose Safety and Pharmacokinetics of CDRI-97/78: First-in-Human Study of a Novel Antimalarial Drug” (Malaria Research and Treatment, 2014).
Where “and” joins values, the source holds several entries; their conditions need not be identical. Equal entries are not always repeated. Where two headings read alike, the source gives them in different places.

Assays:
[1] = Single oral dose (200 mg) pharmacokinetic study, plasma LC-MS/MS, noncompartmental analysis; format: in vivo, human
Method: For pharmacokinetic (PK) study, eligible participants were admitted and housed in the clinical pharmacology unit an evening prior to the PK study. A standard dinner was served and a fasting condition for at least 10 hrs prior to dosing and 4 hrs after dosing was ensured. A peripheral forearm vein was cannulated for sampling for the PK analysis. 200 mg of the study drug was administered with 300 mL of water. The time of actual dose administration to the nearest minute was recorded. 2.5 mL of blood was collected from the indwelling cannula at 0 (before dose), 0.25, 0.5, 0.75, 1, 1.5, 2, 4, 6, 8, 12, 18, 24, 48, 72, 96, 120, and 144 hrs (after dose). 10 mL of additional blood was collected at 0 (before dose) and 24 hr (after dose) for laboratory parameters for safety assessment and PK control sample. A time window of ±2 minutes was permitted for collecting the post dose samples from the scheduled time for PK analysis. Plasma was separated from blood sample intended for PK analysis, within 1 hour of blood sampling, by centrifugation at 2000 rpm for 10 min at 4°C. Samples were stored at −80°C pending transportation. Heparinised blood samples were transported to the laboratory within 7 days of collection. Quantitative analyses of clinical phase ascending dose and single dose PKs samples were done at GLP lab of Pharmacokinetics and Metabolism Division, CDRI, Lucknow, India. α-Arteether was used as an internal standard and all the analyses were performed as per the published method by Singh et al. 2009 [19]. Acceptance criteria for analytical runs were fixed as per internationally approved guidelines. Data acquisition and quantitation were performed using analyst software version 1.4 (Applied Biosystems, MDS SCIEX Toronto, Canada). PK parameters were estimated by using WinNonlin software (Version 1.5, Pharsight Corporation, Mountain View, CA). Oral data were best fitted in noncompartmental model. The individual plasma concentration-time profiles were subjected to noncompartmental analysis to determine various PK parameters. The PK parameters included the terminal elimination half-life (T 1/2), maximum plasma concentration (C max), time to reach maximum plasma concentration (T max), area under the curve (AUC0–∞), and mean residence time (MRT).

[2] = design: method as in printed; conditions: background statement, ref not given; cited from earlier work
[3] = 97/63 after oral 97/78 200 mg single dose, Mean ± SEM, N = 16
[4] = 97/63 in plasma after oral 97/78 200 mg single dose, individual volunteers 1-16
[5] = human, plasma, po, 200 mg, 97/63 after oral 97/78 200 mg single dose, Mean ± SEM, N = 16

## C=C(c1ccc(OC(C)(C)CO)cc1)C1COC2(OO1)C1CC3CC(C1)CC2C3 (stereo not drawn) [97/63]
[1]; [3]
  AUC0−∞: 878.74 ± 133.15 ng·h/mL
  MRT: 13.77 ± 2.05 h
[1]; [4]
  AUC0−∞: 788.7 ng·h/mL and 1898.9 ng·h/mL and 935 ng·h/mL and 356.1 ng·h/mL and 583.6 ng·h/mL and 696.8 ng·h/mL and 833.1 ng·h/mL and 984.1 ng·h/mL and 104.8 ng·h/mL and 1644 ng·h/mL and 602.6 ng·h/mL and 785 ng·h/mL and 1522.6 ng·h/mL and 207.9 ng·h/mL and 1604.9 ng·h/mL and 511.7 ng·h/mL
  C max: 172 ng/mL and 295 ng/mL and 47.4 ng/mL and 50.4 ng/mL and 65.4 ng/mL and 105 ng/mL and 55 ng/mL and 123 ng/mL and 20.1 ng/mL and 373 ng/mL and 187 ng/mL and 149 ng/mL and 355 ng/mL and 42.6 ng/mL and 202 ng/mL and 60.9 ng/mL
  MRT: 12.57 h and 9.76 h and 30.72 h and 14.53 h and 11.26 h and 18.37 h and 32.20 h and 18.52 h and 5.72 h and 13.7 h and 3.53 h and 5.38 h and 14.25 h and 6.42 h and 14.13 h and 9.28 h
  T 1/2: 13.89 h and 11.63 h and 24.26 h and 14.50 h and 10.10 h and 17.73 h and 24.51 h and 18.90 h and 2.17 h and 4.78 h and 2.20 h and 3.88 h and 21.27 h and 3.00 h and 8.94 h and 7.80 h
  T max: 1.5 h (5×) and 2 h (6×) and 4 h (4×) and 1 h
[1]; after oral 97/78 200 mg
  First time at which quantified in plasma: 0.5 h
[1]; after oral 97/78 200 mg, two volunteers up to 72 h
  Last time at which quantified in plasma: up to 48 h
[1]; [5]
  Cmax: 144 ± 28.3 ng/mL
  Tmax: 2.28 ± 0.27 h
[1]; male, human, plasma, po, 200 mg, 97/63 after oral 97/78 200 mg single dose, Mean ± SEM, N = 16
  AUC(0-inf): 845 ± 143 ng·h/mL
[1]; male, human, plasma, po, 200 mg, 97/63 after oral 97/78 200 mg single dose, Mean ± SEM, N = 16, read-out: MRT
  MRT: 9.73 ± 1.06 h
[1]; male, human, plasma, po, 200 mg, 97/63 after oral 97/78 200 mg, mean, as given in text without unit
  Cmax: 144 ± 28.3 ng/mL
[2]
  Bioavailability: poor
